Laboratory results as given in patent US20190365681A1, “TREATMENT OF CANCER WITH COMBINATIONS OF RXR AGONISTS AND THYROID HORMONES” (Io Therapeutics, Inc., priority 2015, published 2019).
“Also recorded” adds a separate entry of the source. Where two headings read alike, the source gives them in different places.

Columns and labels:
T47D [1] = test: In vitro growth inhibition, soft-agar; format: cell-based
Experimental: (§1) The inhibition of growth was tested in a variety of cancer cell lines.
(§2) All cell lines were obtained from American Type Culture Collection (ATCC, Manassas, Va.) and culture media and supplements were supplied by ATCC and Invitrogen (Carlsbad, Calif.). The ATP assay was performed using […]-GLO Luminescent Cell Viability Assay Kit from Promega (Madison, Wis.) which allows ATP to be roughly quantified based on the […] emitted by the cells. Luminescence was recorded using VICTOR-22 1420 (Perkin Elmer, Waltham, Mass.).
(§3) The soft-agar coupled thymidine incorporation assay is used to determine the ability of cells to form colonies through invasion into agar matrix. A bottom feeder layer of cells was composed of 0.6% NUSIEVE GTG agarose (Cambrex, East Rutherford, N.J.), D-MEM with low glucose, 2 mM L-glutamine, and 15% charcoal/dextran-treated FBS. Test cells were seeded in the top soft-agar layer containing 0.3% NUSIEVE GTG agarose, D-MEM (low glucose), 2 mM L-glutamine, and 15% charcoal/dextran-treated FBS at a density of 10,000-20,000 cells per well. Test cells were labeled with [^3H] thymidine at 50 nM. Labeled cells were collected and counted as described above.
(§4) For the soft-agar colony formation assay, cells were cultured in 6-well plates containing two agar layers with growth medium. The bottom feeder layer contained 0.5% DIFCO Noble Agar (Becton Dickinson & Co., East Rutherford, N.J.), D-MEM with low glucose and 2 mM L-glutamine, and 15% charcoal/dextran-treated FBS. Test cells were seeded in the top soft-agar layer containing 0.3% agarose, D-MEM (low glucose), 2 mM L-glutamine, and 15% charcoal/dextran-treated FBS at a density of 10,000 cells per well. After treatment with drugs, cell colonies were counted under a light microscope.
(§5) Efficacy is the maximal inhibition of cell growth at the maximal concentration used in the studies. ND means the results were not determined.

H446 = test: In vitro growth inhibition, soft-agar; format: cell-based
Experimental: as §1, §2, §3, §4, §5

H-82 = test: In vitro growth inhibition, [3H] thymidine incorporation; format: cell-based
Experimental: as §1, §2
(§6) The thymidine incorporation assay allows for specific detection of [^3H]-labeled thymidine (Perkin-Elmer) incorporated into newly synthesized DNA. Labeled cells were collected and their DNA was harvested on to a fiberglass filter using MLR24 Cell Harvester (Brandel, Geithersburg, Md.). The amount of incorporated [^3H] thymidine was determined by scintillation counting using Trilux-1450 Microbeta Counter (Perkin-Elmer).
as §5

HL-60 = test: as above; format: cell-based
Experimental: as §1, §2, §6, §5

SW48 = test: In vitro growth inhibition, cell counting; format: cell-based; settings: SW48, Colon, maximal inhibition at 1 μM
[2] = test system: refractory malignancies (progressive, solid tumors); test: Phase I/II study of IRX4204 in refractory malignancies; format: in vivo, Humans
Text: Data was collected for 18 patients with progressive, solid tumors.

RXRα = RXRα (Homo sapiens, UniProt P19793); settings: CV-1 cells, 20 hours, luciferase
Experimental: To determine whether a RXR agonist can mediate its effects via RXRα receptor homodimers, RXRβ receptor homodimers, RXRγ receptor homodimers, or any combination thereof, or the corresponding RAR/RXR heterodimers, receptor-mediated transactivation assays were performed. For transactivation assays assessing RXR homodimer signaling, CV-1 cells were transfected with 1) an expression construct including a full length RXRα, RXRβ, or RXRγ; and 2) a rCRBPII/RXRE-tk-Luc reporter construct that included RXR homodimer-specific RXRE/DR1 responsive element linked to a luciferase gene. For transactivation assays assessing RAR/RXR heterodimer signaling, CV-1 cells were transfected with 1) an expression construct comprising a fusion protein including an estrogen receptor (ER) DNA binding domain linked to the ligand binding domain of RARα, RARβ, or RARγ and 2) a ERE-tk-Luc reporter construct that included an estrogen receptor responsive element linked to a luciferase gene. […] Data are mean values±SE from five independent experiments.

Nurr1/RXR = Nurr1/RXR (Homo sapiens, UniProt P19793); test: Permissive heterodimer transactivation assay, COS7 cells, 3xNBRE-tk-luc; format: cell-based; settings: Nurr-1 with RXRα
Text: (§7) For PPARγ: CV-1 cells were transfected with 3×(rAOX/DR1)-tk-Luc reporter gene and an expression vector for PPARγ. For FXR:CV-1 cells were transfected with 3×(IBABP/IRI)-tk-Luc reporter gene and vectors for FXR and RXRα. For LXR:CV-1 cells were transfected with 3×(PLTP/LXRE)-tk-Luc reporter gene with vectors for LXRα or LXRβ. For Nurr1: COS7 cells were transfected with 3×NBRE-tk-luc reporter gene and full length Nurr-1 with or without full-length RXRα plasmid. […] Luciferase data were normalized to co-transfected β-gal activity. Luciferase activity was expressed as percent of maximal activity obtained using specific agonists. Rosiglitazone (PPARγ), GW4064 (FXR), T0901317 (LXR).

RXRγ = molecular target: T1, RXRγ (Homo sapiens, UniProt P48443); test: RXR homodimer transactivation assay (rCRBPII/RXRE-tk-Luc reporter) in CV-1 cells; format: cell-based
T1 construct: an expression construct including a full length RXRα, RXRβ, or RXRγ; expressed in transfected cells; host or cells: CV-1
Experimental: To determine whether a RXR agonist can mediate its effects via RXRα receptor homodimers, RXRβ receptor homodimers, RXRγ receptor homodimers, or any combination thereof, or the corresponding RAR/RXR heterodimers, receptor-mediated transactivation assays were performed. For transactivation assays assessing RXR homodimer signaling, CV-1 cells were transfected with 1) an expression construct including a full length RXRα, RXRβ, or RXRγ; and 2) a rCRBPII/RXRE-tk-Luc reporter construct that included RXR homodimer-specific RXRE/DR1 responsive element linked to a luciferase gene. For transactivation assays assessing RAR/RXR heterodimer signaling, CV-1 cells were transfected with 1) an expression construct comprising a fusion protein including an estrogen receptor (ER) DNA binding domain linked to the ligand binding domain of RARα, RARβ, or RARγ and 2) a ERE-tk-Luc reporter construct that included an estrogen receptor responsive element linked to a luciferase gene. The ER-RAR fusion proteins provided an accurate readout of only the transfected ER-RAR. […] Data are mean values±SE from five independent experiments.

ME-180 = test: In vitro growth inhibition, ATP assay ([…]-GLO); format: cell-based
Experimental: as §1, §2, §5

HuT 78 = test: In vitro growth inhibition, ATP assay ([…]-GLO); format: cell-based
Experimental: as §1, §2, §5

SW403 = test: In vitro growth inhibition, ATP assay ([…]-GLO); format: cell-based
Experimental: as §1, §2, §5

SK-BR-3 = test: In vitro growth inhibition, ATP assay ([…]-GLO); format: cell-based
Experimental: as §1, §2, §5

T47D [3] = test: In vitro growth inhibition, ATP assay ([…]-GLO); format: cell-based
Experimental: as §1, §2, §5

HT-3 = test: In vitro growth inhibition, ATP assay ([…]-GLO); format: cell-based
Experimental: as §1, §2, §5

A-427 = test: In vitro growth inhibition, ATP assay ([…]-GLO); format: cell-based
Experimental: as §1, §2, §5

U937 = test: In vitro growth inhibition, ATP assay ([…]-GLO); format: cell-based
Experimental: as §1, §2, §5

MCF-7 = test: In vitro growth inhibition, ATP assay ([…]-GLO); format: cell-based
Experimental: as §1, §2, §5

SiHa = test: In vitro growth inhibition, ATP assay ([…]-GLO); format: cell-based
Experimental: as §1, §2, §5

LXRβ/RXR = test: Permissive heterodimer transactivation assay, CV-1 cells, 3x(PLTP/LXRE)-tk-Luc; format: cell-based; settings: 20 hr; relative to T0901317
Text: as §7

LXRα/RXR = test: as above; format: cell-based; settings: 20 hr; relative to T0901317
Text: as §7

FXR/RXR = molecular target: T2, FXR/RXR (Homo sapiens, UniProt P19793); test: Permissive heterodimer transactivation assay, CV-1 cells, 3x(IBABP/IRI)-tk-Luc; format: cell-based; settings: 20 hr; relative to GW4064
T2 construct: expressed in transfected cells; host or cells: CV-1
Text: as §7

[4] = cited from earlier work
[5] = Homo sapiens, Breast ER-positive

T2 sequence (Q96RI1 whole entry partner): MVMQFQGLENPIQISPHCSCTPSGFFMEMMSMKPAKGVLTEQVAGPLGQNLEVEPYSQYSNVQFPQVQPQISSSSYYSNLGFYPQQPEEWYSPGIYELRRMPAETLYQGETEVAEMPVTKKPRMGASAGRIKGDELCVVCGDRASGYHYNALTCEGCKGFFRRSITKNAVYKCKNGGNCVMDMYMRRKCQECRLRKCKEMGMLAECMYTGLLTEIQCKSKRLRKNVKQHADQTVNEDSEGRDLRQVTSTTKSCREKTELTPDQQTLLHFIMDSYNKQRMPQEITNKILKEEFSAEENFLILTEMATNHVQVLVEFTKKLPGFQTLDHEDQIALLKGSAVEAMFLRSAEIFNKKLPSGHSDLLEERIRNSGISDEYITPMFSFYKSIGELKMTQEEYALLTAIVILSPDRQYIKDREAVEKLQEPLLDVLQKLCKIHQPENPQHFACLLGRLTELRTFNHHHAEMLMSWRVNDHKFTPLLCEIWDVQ
T2 sequence (P19793 whole entry): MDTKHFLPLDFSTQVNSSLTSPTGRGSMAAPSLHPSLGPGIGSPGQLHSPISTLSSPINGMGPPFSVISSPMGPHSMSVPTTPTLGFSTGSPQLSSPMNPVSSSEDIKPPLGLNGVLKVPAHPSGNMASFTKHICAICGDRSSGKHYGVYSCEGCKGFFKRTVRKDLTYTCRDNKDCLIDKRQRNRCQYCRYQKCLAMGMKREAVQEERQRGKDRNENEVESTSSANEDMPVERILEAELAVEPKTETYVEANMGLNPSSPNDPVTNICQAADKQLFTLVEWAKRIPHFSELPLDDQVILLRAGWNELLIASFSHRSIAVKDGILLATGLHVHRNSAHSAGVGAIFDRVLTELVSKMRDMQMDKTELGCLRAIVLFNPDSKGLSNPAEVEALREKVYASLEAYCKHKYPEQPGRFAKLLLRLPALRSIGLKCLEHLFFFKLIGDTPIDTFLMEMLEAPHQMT
RXRα, sequence (P19793 whole entry, the tested form may be a part): as the sequence (P19793 whole entry) above
Nurr1/RXR, sequence (P43354 whole entry partner): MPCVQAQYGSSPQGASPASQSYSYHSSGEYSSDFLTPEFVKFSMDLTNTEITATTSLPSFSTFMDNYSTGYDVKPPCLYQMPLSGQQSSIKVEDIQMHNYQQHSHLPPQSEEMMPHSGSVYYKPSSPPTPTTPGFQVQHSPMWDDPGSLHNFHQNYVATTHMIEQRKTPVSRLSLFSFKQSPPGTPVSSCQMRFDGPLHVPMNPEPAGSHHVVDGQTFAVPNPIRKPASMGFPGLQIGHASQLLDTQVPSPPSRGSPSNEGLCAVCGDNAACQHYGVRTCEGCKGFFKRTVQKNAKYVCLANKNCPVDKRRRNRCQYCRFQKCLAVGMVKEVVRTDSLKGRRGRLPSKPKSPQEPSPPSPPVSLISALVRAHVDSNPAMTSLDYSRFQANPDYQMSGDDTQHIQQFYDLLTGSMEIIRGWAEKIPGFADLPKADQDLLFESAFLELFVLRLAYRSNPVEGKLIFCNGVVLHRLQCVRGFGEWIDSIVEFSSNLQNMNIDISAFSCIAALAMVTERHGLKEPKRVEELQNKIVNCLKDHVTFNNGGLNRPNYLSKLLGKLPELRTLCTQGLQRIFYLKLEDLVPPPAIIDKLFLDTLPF
Nurr1/RXR, sequence (P19793 whole entry): as the sequence (P19793 whole entry) above
T1 sequence (P48443 whole entry): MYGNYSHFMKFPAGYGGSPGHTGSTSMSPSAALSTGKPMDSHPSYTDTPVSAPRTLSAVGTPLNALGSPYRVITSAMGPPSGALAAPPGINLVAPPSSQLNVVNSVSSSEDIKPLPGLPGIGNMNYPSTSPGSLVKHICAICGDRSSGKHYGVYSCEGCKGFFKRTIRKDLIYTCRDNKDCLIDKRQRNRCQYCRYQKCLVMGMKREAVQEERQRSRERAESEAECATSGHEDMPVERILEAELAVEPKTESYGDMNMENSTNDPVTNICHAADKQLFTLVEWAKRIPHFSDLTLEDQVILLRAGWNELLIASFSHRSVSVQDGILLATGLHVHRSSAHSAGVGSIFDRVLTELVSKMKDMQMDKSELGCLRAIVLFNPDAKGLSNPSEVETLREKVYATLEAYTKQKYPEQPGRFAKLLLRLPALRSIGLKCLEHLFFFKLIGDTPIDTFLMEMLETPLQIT

CC(/C=C/[C@@H]1C[C@]1(C)c1ccc2c(c1)C(C)(C)CCC2(C)C)=C\C(=O)O [IRX4204, 3,7-dimethyl-6(S),7(S)-methano,7-[1,1,4,4-tetramethyl-1,2,3,4-tetrahydronaphth-7-yl]2(E),4(E) heptadienoic acid]
IC50 (T47D [1]; [5]): 12.6 nM | Efficacy (Conc.) (T47D [1]; maximal inhibition at 10 μM): 97% | Efficacy (Conc.) (H446; H446, Soft-Agar, maximal inhibition at 1 μM): 44% | IC50 (H446; Homo sapiens, NCI-H446, H446, Small Cell Lung Cancer, Soft-Agar): 17 nM | Efficacy (Conc.) (H-82; H-82, thymidine incorporation, maximal inhibition at 1 μM): 72% | IC50 (H-82; Homo sapiens, NCI-H82, H-82, Small Cell Lung Cancer, [H3] Thymidine Incorporation): 3.6 nM | Efficacy (Conc.) (HL-60; HL-60, thymidine incorporation, maximal inhibition at 1 μM): 94% | IC50 (HL-60; Homo sapiens, HL-60, Leukemia, [H3] Thymidine Incorporation): 15 nM | Efficacy (Conc.) (SW48): 60% | patients who did not exhibit tumor progression for at least four months ([2]; 18 patients with progressive, solid tumors, 9 patients): 50% | adverse events recorded ([2]; patients, once-daily oral 3, 6, 12, 24 mg/m^2, minimum four weeks): triglyceride elevation and hypothyroidism | serious adverse events related to IRX4204 ([2]; patients, once-daily oral 3, 6, 12, 24 mg/m^2, minimum four weeks, 18 patients): no serious adverse events considered possibly or probably related to IRX4204 | Efficacy (% of 1 μM IRX4204) RXRα (RXRα): 100 % of 1 μM IRX4204 | activation of Nurr1/RXR permissive heterodimer (Nurr1/RXR): selectively activates | Efficacy (% of 1 μM IRX4204) RXRγ (RXRγ): 0.09 ± 0.01 100 % of 1 μM IRX4204 | IC50 (ME-180; Homo sapiens, ME-180, Cervical, ATP): 7 nM | Efficacy (Conc.) (ME-180; ME-180, ATP, maximal inhibition at 1 μM): 80% | IC50 (HuT 78; Homo sapiens, HuT78, HuT 78, Cutaneous T-Cell Lymphoma, ATP, 50% of maximal inhibition): 1.6 nM | Efficacy (Conc.) (HuT 78; HuT 78, ATP, maximal inhibition at 1 μM): 81% | IC50 (SW403; Homo sapiens, SW-403, SW403, Colon, ATP): 0.78 nM | Efficacy (Conc.) (SW403; SW403, ATP, maximal inhibition at 1 μM): 35% | IC50 (SK-BR-3; Homo sapiens, SK-BR-3, Breast ER-negative, ATP): 3 nM | Efficacy (Conc.) (SK-BR-3; SK-BR-3, ATP, maximal inhibition at 1 μM): 74% | IC50 (T47D [3]; [5]): 75 nM | Efficacy (Conc.) (T47D [3]; maximal inhibition at 1 μM): 97% | Efficacy (Conc.) (HT-3; HT-3, ATP, maximal inhibition at 1 μM): 68% | IC50 (HT-3; Homo sapiens, HT-3, Cervical, ATP): < 1000 nM | Efficacy (Conc.) (A-427; A-427, ATP, maximal inhibition at 10 μM): 50% | IC50 (A-427; Homo sapiens, A-427, Non-Small Cell Lung Cancer, ATP): 7.7 nM | IC50 (U937; Homo sapiens, U-937, U937, Leukemia, ATP): 0.73 nM | Efficacy (Conc.) (U937; U937, ATP, maximal inhibition at 1 μM): 94% | IC50 (MCF-7; Homo sapiens, MCF7, MCF-7, Breast ER-positive, ATP): 52 nM | Efficacy (Conc.) (MCF-7; MCF-7, ATP, maximal inhibition at 1 μM): 52% | IC50 (SiHa; Homo sapiens, Cervical): 47 nM | Efficacy (Conc.) (SiHa; maximal inhibition at 1 μM): 41% | activation of LXRβ/RXR heterodimer (LXRβ/RXR): not to transactivate; also recorded: does not activate | activation of LXRα/RXR heterodimer (LXRα/RXR): not to transactivate; also recorded: does not activate | activation of FXR/RXR heterodimer (FXR/RXR): not to transactivate; also recorded: does not activate

C=C(c1ccc(C(=O)O)cc1)c1cc2c(cc1C)C(C)(C)CCC2(C)C [bexarotene, 4-[1-(3,5,5,8,8-pentamethyl-6,7-dihydronaphthalen-2-yl)ethenyl]benzoic acid]
Cmax ([4]; dose of 400 mg/m^2/d, read-out: Cmax in the blood (estimated)): ~8 µM | Cmax ([4]; lower dose 225 mg/m^2/d, read-out: Cmax (estimated)): ~2 µM
